Test results as given in article PMC6150406, “Adding an Artificial Tail—Anchor to a Peptide-Based HIV-1 Fusion Inhibitor for Improvement of Its Potency and Resistance Profile” (Molecules : A Journal of Synthetic Chemistry and Natural …, 2017).
Where two headings read alike, the source gives them in different places. Where a SMILES comes first, the peptide text is derived from it.

Assays:
KER2018 (A, R5) = details: clinical isolate KER2018 (A, R5); CEMx174 5.25 M7 cells, p24 ELISA day 7
Protocol: (§1) Inhibitory activities of peptides on infection by laboratory-adapted HIV-1 X4 strain IIIB and HIV-1 R5 strain Bal, and HIV-1 clinical strains, as well as T20-, T2635- and HP23-resistant strains, were determined as described previously. For each well of the 96-well plate, 104 MT-2 cells or CEMx174 5.25 M7 cells with graded concentrations of peptide were infected by […] TCID50 of the HIV-1 virus X4 or R5 strains, respectively. After overnight culture, the medium was replaced with fresh RPMI 1640 medium containing 10% FBS. Fifty microliters of culture supernatant were collected from each well on the fourth day for MT-2 cells and the seventh day for CEMx174 5.25 M7 cells. The supernatant was mixed with equal volumes of 5% Triton X-100. The p24 antigen was detected by ELISA as previously described. IC50 values were calculated using the Calcusyn software program (Biosoft, Ferguson, MO, USA).

HIV-1 IIIB (X4 virus) = details: read-out: IC50, HIV-1 IIIB infection; MT-2 cells; p24 ELISA, fourth day
Protocol: as §1

HIV-1 Bal (R5 virus) = details: read-out: IC50, HIV-1 Bal infection; CEMx174 5.25 M7 cells; p24 ELISA, seventh day
Protocol: as §1

HIV-1 K90E/N126K = details: T2635-resistant K90E/N126K; p24 ELISA
Protocol: as §1

HIV-1 V38A = details: T20-resistant V38A; p24 ELISA
Protocol: as §1

92TH009 (A/E, R5) = details: clinical isolate 92TH009 (A/E, R5); CEMx174 5.25 M7 cells, p24 ELISA day 7
Protocol: as §1

HIV-1 Q66R/N113E = details: T2635-resistant Q66R/N113E; p24 ELISA
Protocol: as §1

HIV-1 V38E, N42S = details: T20-resistant V38E, p24 ELISA
Protocol: as §1

HIV-1 N113E = details: T2635-resistant N113E; p24 ELISA
Protocol: as §1

KNH1135 (A, R5) = details: clinical isolate KNH1135 (A, R5); CEMx174 5.25 M7 cells, p24 ELISA day 7
Protocol: as §1

HIV-1 A6V = details: T2635-resistant A6V; p24 ELISA
Protocol: as §1

HIV-1 D36G/E49K/N126K = details: HP23-resistant D36G/E49K/N126K; p24 ELISA
Protocol: as §1

HIV-1 K90E = details: T2635-resistant K90E; p24 ELISA
Protocol: as §1

[1] = test system: HIV-1 L34S/D36G/E49K/E136G; details: HP23-resistant L34S/D36G/E49K/E136G; p24 ELISA
Protocol: as §1

HIV-1 wild-type = details: p24 ELISA
Protocol: as §1

BK132/GS009 (B, X4) = details: clinical isolate BK132/GS009 (B, X4); MT-2 cells, p24 ELISA day 4
Protocol: as §1

HIV-1 V38A, N42D = details: T20-resistant V38A, p24 ELISA
Protocol: as §1

93IN101 (C, R5) = details: clinical isolate 93IN101 (C, R5); CEMx174 5.25 M7 cells, p24 ELISA day 7
Protocol: as §1

NP1525 (A/E, X4/R5) = details: clinical isolate NP1525 (A/E, X4/R5); p24 ELISA
Protocol: as §1

HIV-1 E49K/N126K = details: HP23-resistant E49K/N126K; p24 ELISA
Protocol: as §1

HIV-1 H3C = details: T2635-resistant H3C; p24 ELISA
Protocol: as §1

90US_873 (B, R5) = details: clinical isolate 90US_873 (B, R5); CEMx174 5.25 M7 cells, p24 ELISA day 7
Protocol: as §1

US4GS007 (B, R5) = details: clinical isolate US4GS007 (B, R5); CEMx174 5.25 M7 cells, p24 ELISA day 7
Protocol: as §1

HIV-1 E49K = details: HP23-resistant E49K; p24 ELISA
Protocol: as §1

HIV-1 V38A, N42T = details: T20-resistant V38A, p24 ELISA
Protocol: as §1

HIV-1 Q79E = details: T2635-resistant Q79E; p24 ELISA
Protocol: as §1

HIV-1 N126K = details: T2635-resistant N126K; p24 ELISA
Protocol: as §1

HIV-1 Q66R = details: T2635-resistant Q66R; p24 ELISA
Protocol: as §1

HIV-1 K154Q = details: T2635-resistant K154Q; p24 ELISA
Protocol: as §1

93BR020 (F, X4/R5) = details: clinical isolate 93BR020 (F, X4/R5); p24 ELISA
Protocol: as §1

HIV-1 Q79E/N126K = details: T2635-resistant Q79E/N126K; p24 ELISA
Protocol: as §1

92UG024 (D, X4) = details: clinical isolate 92UG024 (D, X4); MT-2 cells, p24 ELISA day 4
Protocol: as §1

HIV-1 WT = details: WT of T20-resistant panel; p24 ELISA
Protocol: as §1

[2] = test system: cell–cell fusion between H9/HIV-1IIIB cells and MT-2 cells; details: read-out: IC50, cell–cell fusion; H9/HIV-1IIIB (Calcein AM) with MT-2 cells, 37 °C, 2 h
Protocol: A dye transfer assay was used to detect HIV-1 Env-mediated cell-cell fusion as described previously. […] For each well of the 96-well plate, 50 μL 2 × 10^4/mL labeled H9/HIV-1IIIB cells were then incubated with 100 μL 1 × 10^5/mL MT-2 cells at 37 °C for 2 h in the presence or absence of the tested peptide at graded concentrations. […] The IC50 values were calculated by using the Calcusyn computer program (Biosoft, Ferguson, MO, USA).

[3] = target: T1, 6-HB formation between N46 and C34 (Human immunodeficiency virus type 1 group M subtype B, UniProt P04578); experiment: Inhibition of 6-HB formation between N46 and C34 (ELISA, NC-1); format: biochemical, HIV-1; details: ELISA with NC-1 mAb; 1 μM N46; 37 °C 30 min then 1 h; A450
T1 construct: NHR peptide N46 (aa 536-581 of NHR)
Protocol: The inhibitory activity of peptides on 6-HB formation was measured by a modified ELISA as previously described. Briefly, a 96-well polystyrene plate (Costar, Corning Inc., Corning, NY, USA) was coated with 50 μL 2 μg/mL NY364 (a polyclonal antibody for HIV-1 gp41 subunit) in 0.1 M Tris buffer (pH 8.8). A mixture of 1 μM N46 and C-peptide with graded concentrations was added to the coated plate after incubation at 37 °C for 30 min. After another 1 hour incubation at 37 °C, the plate was washed with washing buffer (PBS containing 0.1% Tween 20) three times and refilled by 50 μL 1 μg/mL NC-1 (a monoclonal antibody specific for HIV-1 gp41 6-HB formed by NHR and CHR). Afterwards, 50 μL of horseradish peroxidase (HRP)-labeled rabbit anti-mouse antibody (Sigma, St. Louis, MO, USA) (1:4000 diluted) were added to the wells of plate, followed by incubation for 1 h and washing. Finally, the substrate 3,3,5,5-tetramethylbenzidine (TMB, Sigma, St. Louis, MO, USA) was added. Absorbance at 450 nm (A450) was tested by an ELISA reader (Ultra 384, Tecan, NC, USA).

[4] = clinical use; cited from earlier work

T1 sequence (P04578 536-581): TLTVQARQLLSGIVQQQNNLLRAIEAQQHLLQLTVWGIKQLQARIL

Compound `CC[C@H](C)[C@H](NC(=O)[C@H](CCC(=O)O)NC(=O)[C@H](CCC(=O)O)NC(=O)[C@@H](NC(=O)[C@H](CCCCN)NC(=O)[C@H](CCCCN)NC(=O)[C@@H](NC(=O)[C@H](Cc1ccc(O)cc1)NC(=O)[C@H](CCC(=O)O)NC(=O)[C@H](CCC(=O)O)NC(=O)[C@@H](NC(=O)[C@H](CCCCN)NC(=O)[C@H](CCCCN)NC(=O)[C@H](CCC(=O)O)NC(=O)[C@H](Cc1c[nH]c2ccccc12)NC(=O)[C@H](CCC(=O)O)NC(=O)[C@H](CCC(=O)O)NC(=O)[C@H](Cc1c[nH]c2ccccc12)NC(=O)[C@@H](NC(=O)[C@H](CCSC)NC(=O)[C@@H](N)CCC(=O)O)[C@@H](C)O)[C@@H](C)CC)[C@@H](C)O)[C@@H](C)CC)C(=O)N[C@@H](CC(C)C)C(=O)N[C@@H](CCCCN)C(=O)O` [HP23] (H-EMTWEEWEKKIEEYTKKIEEILK-OH) has an IC50 (KER2018 (A, R5)) of 1.9 ± 0.2 nM, an IC50 (HIV-1 IIIB (X4 virus)) of 1.68 nM and an IC50 (HIV-1 Bal (R5 virus)) of 5.96 nM. It also gave an IC50 (HIV-1 K90E/N126K) of 4.2 ± 0.3 nM, an IC50 (HIV-1 V38A) of 2.1 ± 0.7 nM and an IC50 (92TH009 (A/E, R5)) of 0.8 ± 0.2 nM. It also gave an IC50 (HIV-1 Q66R/N113E) of 3.6 ± 0.3 nM, an IC50 (HIV-1 V38E, N42S) of 6.2 ± 0.3 nM and an IC50 (HIV-1 N113E) of 2.3 ± 0.5 nM. The IC50 (KNH1135 (A, R5)) was 2.2 ± 0.3 nM, the IC50 (HIV-1 A6V) was 1.6 ± 0.5 nM and the IC50 (HIV-1 D36G/E49K/N126K) was over 60 nM. It also gave an IC50 (HIV-1 K90E) of 9.4 ± 0.3 nM, an IC50 [1] of over 60 nM and an IC50 (HIV-1 wild-type; wild-type of HP23-resistant panel) of 3.3 ± 0.3 nM. The IC50 (HIV-1 wild-type; wild-type of T2635-resistant panel) was 2.8 ± 0.2 nM, the IC50 (BK132/GS009 (B, X4)) was 7.2 ± 0.5 nM and the IC50 (HIV-1 V38A, N42D) was 2.9 ± 0.3 nM. The IC50 (93IN101 (C, R5)) was 3.7 ± 0.3 nM, the IC50 (NP1525 (A/E, X4/R5)) was 9.5 ± 0.6 nM and the IC50 (HIV-1 E49K/N126K) was 53.8 ± 1.2 nM. The IC50 (HIV-1 H3C) was 5.4 ± 0.4 nM, the IC50 (90US_873 (B, R5)) was 3.4 ± 0.6 nM and the IC50 (US4GS007 (B, R5)) was 3.9 ± 0.6 nM. The IC50 (HIV-1 E49K) was 13.4 ± 0.7 nM, the IC50 (HIV-1 V38A, N42T) was 1.5 ± 0.3 nM and the IC50 (HIV-1 Q79E) was 4.2 ± 0.7 nM. It also gave an IC50 (HIV-1 N126K) of 8.6 ± 0.4 nM, an IC50 (HIV-1 Q66R) of 2.8 ± 0.1 nM and an IC50 (HIV-1 K154Q) of 7.4 ± 0.4 nM. It also gave an IC50 (93BR020 (F, X4/R5)) of 4.5 ± 0.2 nM, an IC50 (HIV-1 Q79E/N126K) of 5.2 ± 0.4 nM and an IC50 (92UG024 (D, X4)) of 3.5 ± 0.2 nM. It also gave an IC50 (HIV-1 WT) of 3.1 ± 0.1 nM, an IC50 [2] of 5.12 nM and an IC50 [3] of 3720 nM.
For enfuvirtide, the IC50 [2] is given as 16.6 nM, the “half-life (in words)” value [4] is given as “short half-life” and the “oral bioavailability (in words)” value [4] is given as “lack of oral bioavailability”.
